Laboratory results: US11965039B2, “Compstatin analogues and their medical uses” (priority 2018, dated 2024)
Starred links: 1 amine or outer side, 2 acyl side, 3 side chain; linkers in the order of their positions; H or OH if unused. Positions of bridges follow the written chain, without caps; N, C: chain ends. Non-standard residues stand in square brackets, D forms with d. Residues, ends and D or L forms follow the SMILES beside them. Groups on a side chain read outwards from the residue. *: point of attachment. Trp(1-Me) = Cn1cc(C[C@H](N)C(=O)O)c2ccccc21; C18 diacid = O=C(O)CCCCCCCCCCCCCCCCC(=O)*; γGlu = O=C(O)[C@H](CCC(=O)[*:2])N[*:1]; 1Nal = N[C@@H](Cc1cccc2ccccc12)C(=O)O; 2Nal = N[C@@H](Cc1ccc2ccccc2c1)C(=O)O; Sar = CNCC(=O)O

Tests used:
[1] = Solubility test at 10 mg/mL (visual inspection and light scattering); format: physicochemical; settings: for Solubility, Condition 1: Acetate pH 4; for Solubility, Condition 2: Acetate pH 5; for Solubility, Condition 3: Phosphate pH 6; for Solubility, Condition 4: Phosphate pH 7; for Solubility, Condition 5: Phosphate pH 7.5
[2] = test system: classical complement pathway; assay: In vitro haemolysis assay (inhibition of classical complement pathway); format: cell-based, human; settings: human serum, sensitized sheep red blood cells; Table 3, given as upper bounds; read-out: IC50, inhibition of hemolysis
In short: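 Compound dilutions preincubated 15 min at room temperature with diluted human serum (titrated per batch for 70-90% maximal haemolysis), then antibody-sensitized sheep RBC (10^7/well) added for 30 min at 37 °C in Tris/casein buffer, pH 7.4. Stopped with EDTA; haemolysis read at 405 nm; IC50 by 4PL fit.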

Row | Structure (SMILES) | Solubility, Condition 1 [1] | Solubility, Condition 2 [1] | Solubility, Condition 3 [1] | Solubility, Condition 4 [1] | Solubility, Condition 5 [1] | IC50 [2] [nM]
1 | CC[C@H](C)[C@H](NC(C)=O)C(=O)N[C@H]1CSSC[C@@H](C(=O)N[C@H](C(=O)NCC(=O)N[C@@H](C)C(=O)N[C@@H](CCC(=O)O)C(=O)N[C@@H](CO)C(N)=O)[C@@H](C)O)NC(=O)[C@H](CCCNC(=N)N)NC(=O)[C@H](Cc2c[nH]cn2)NC(=O)[C@H](CCC(=O)O)NC(=O)CNC(=O)[C@H](Cc2c[nH]c3ccccc23)NC(=O)[C@H](CC(=O)O)NC(=O)[C@H](CCC(N)=O)NC(=O)[C@H](Cc2ccc3ccccc3c2)NC(=O)[C@H]([C@@H](C)CC)NC1=O [Compound 52] (Ac-ICI[2Nal]QDWGEHRCTGAES-NH2; disulfide 2-12) | − (“−” denotes lack of solubility at the given condition, as UV absorbance at 340 nm exceeds 0.1 AU and/or it is visibly turbid or contains particles) | − (“−” denotes lack of solubility at the given condition, as UV absorbance at 340 nm exceeds 0.1 AU and/or it is visibly turbid or contains particles) | + (“+” denotes solubility at the given condition, as determined by UV absorbance being less than 0.1 AU at 340 nm and the sample being clear when manually inspected) | + (“+” denotes solubility at the given condition, as determined by UV absorbance being less than 0.1 AU at 340 nm and the sample being clear when manually inspected) | + (“+” denotes solubility at the given condition, as determined by UV absorbance being less than 0.1 AU at 340 nm and the sample being clear when manually inspected) | < 100
2 | CC[C@H](C)[C@@H]1NC(=O)[C@@H](NC(=O)[C@H](Cc2ccc(O)cc2)NC(=O)[C@H](CCC(=O)O)NC(=O)[C@H](CO)NC(C)=O)CSSC[C@@H](C(=O)N(C)CC(=O)N[C@@H](CCC(=O)O)C(=O)NCC(=O)N[C@@H](CCC(=O)O)C(=O)N[C@@H](CCCCNC(=O)CC[C@H](NC(=O)CNC(=O)CC[C@H](NC(=O)CCCCCCCCCCCCCCCCC(=O)O)C(=O)O)C(=O)O)C(N)=O)NC(=O)[C@H](CCCNC(=N)N)NC(=O)[C@H](Cc2c[nH]cn2)NC(=O)[C@H](CCC(=O)O)NC(=O)CNC(=O)[C@H](Cc2c[nH]c3ccccc23)NC(=O)[C@H](CC(=O)O)NC(=O)[C@H](CCC(N)=O)NC(=O)[C@H](Cc2cn(C)c3ccccc23)NC1=O [Compound 114] (Ac-SEYCI[Trp(1-Me)]QDWGEHRC[Sar]EGEK([γGlu-Gly-γGlu-C18 diacid])-NH2; disulfide 4-14) | + (“+” denotes solubility at the given condition, as determined by UV absorbance being less than 0.1 AU at 340 nm and the sample being clear when manually inspected) | + (“+” denotes solubility at the given condition, as determined by UV absorbance being less than 0.1 AU at 340 nm and the sample being clear when manually inspected) | + (“+” denotes solubility at the given condition, as determined by UV absorbance being less than 0.1 AU at 340 nm and the sample being clear when manually inspected) | + (“+” denotes solubility at the given condition, as determined by UV absorbance being less than 0.1 AU at 340 nm and the sample being clear when manually inspected) | + (“+” denotes solubility at the given condition, as determined by UV absorbance being less than 0.1 AU at 340 nm and the sample being clear when manually inspected) | < 500
3 | CC[C@H](C)[C@H](NC(=O)[C@H](C)NC(=O)[C@H](CO)NC(C)=O)C(=O)N[C@H]1CSSC[C@@H](C(=O)N(C)CC(=O)N[C@@H](CCC(=O)O)C(N)=O)NC(=O)[C@H](CCCNC(=N)N)NC(=O)[C@H](Cc2c[nH]cn2)NC(=O)[C@H](CCC(=O)O)NC(=O)CNC(=O)[C@H](Cc2c[nH]c3ccccc23)NC(=O)[C@H](CC(=O)O)NC(=O)[C@H](CCC(N)=O)NC(=O)[C@H](Cc2c[nH]c3ccccc23)NC(=O)[C@H]([C@@H](C)CC)NC1=O [Compound 41] (Ac-SAICIWQDWGEHRC[Sar]E-NH2; disulfide 4-14) | − (“−” denotes lack of solubility at the given condition, as UV absorbance at 340 nm exceeds 0.1 AU and/or it is visibly turbid or contains particles) | − (“−” denotes lack of solubility at the given condition, as UV absorbance at 340 nm exceeds 0.1 AU and/or it is visibly turbid or contains particles) | + (“+” denotes solubility at the given condition, as determined by UV absorbance being less than 0.1 AU at 340 nm and the sample being clear when manually inspected) | + (“+” denotes solubility at the given condition, as determined by UV absorbance being less than 0.1 AU at 340 nm and the sample being clear when manually inspected) | + (“+” denotes solubility at the given condition, as determined by UV absorbance being less than 0.1 AU at 340 nm and the sample being clear when manually inspected) | < 250
4 | CC[C@H](C)[C@@H]1NC(=O)[C@@H](NC(=O)[C@H](Cc2ccccc2)NC(=O)[C@H](C)NC(=O)[C@H](CO)NC(=O)CNC(=O)[C@H](CCC(=O)O)NC(C)=O)CSSC[C@@H](C(=O)N[C@H](C(=O)N[C@@H](CCC(=O)O)C(N)=O)[C@@H](C)O)NC(=O)[C@H](CCCNC(=N)N)NC(=O)[C@H](Cc2c[nH]cn2)NC(=O)[C@H](CCC(=O)O)NC(=O)CNC(=O)[C@H](Cc2c[nH]c3ccccc23)NC(=O)[C@H](CC(=O)O)NC(=O)[C@H](CCC(N)=O)NC(=O)[C@H](Cc2cccc3ccccc23)NC1=O [Compound 56] (Ac-EGSAFCI[1Nal]QDWGEHRCTE-NH2; disulfide 6-16) | − (“−” denotes lack of solubility at the given condition, as UV absorbance at 340 nm exceeds 0.1 AU and/or it is visibly turbid or contains particles) | − (“−” denotes lack of solubility at the given condition, as UV absorbance at 340 nm exceeds 0.1 AU and/or it is visibly turbid or contains particles) | + (“+” denotes solubility at the given condition, as determined by UV absorbance being less than 0.1 AU at 340 nm and the sample being clear when manually inspected) | + (“+” denotes solubility at the given condition, as determined by UV absorbance being less than 0.1 AU at 340 nm and the sample being clear when manually inspected) | + (“+” denotes solubility at the given condition, as determined by UV absorbance being less than 0.1 AU at 340 nm and the sample being clear when manually inspected) | < 100
